Values quoted from earlier work, collected in patent publication US7504230B2, “Method of identifying a useful set of signal transduction proteins from a multiplicity of potentially useful proteins” (Trelolis Bioscience, Inc., priority 1999, dated 2009).

Tests used:
PKC isoenzyme η = molecular target: T1, PKC isoenzyme η (Homo sapiens, UniProt P24723); settings: hDMEC, after stimulation with PMA; from nucleus
T1 construct: endogenous in cells; host or cells: hDMEC (human dermal microvascular endothelial cells)
T1 sequence (P24723 whole entry): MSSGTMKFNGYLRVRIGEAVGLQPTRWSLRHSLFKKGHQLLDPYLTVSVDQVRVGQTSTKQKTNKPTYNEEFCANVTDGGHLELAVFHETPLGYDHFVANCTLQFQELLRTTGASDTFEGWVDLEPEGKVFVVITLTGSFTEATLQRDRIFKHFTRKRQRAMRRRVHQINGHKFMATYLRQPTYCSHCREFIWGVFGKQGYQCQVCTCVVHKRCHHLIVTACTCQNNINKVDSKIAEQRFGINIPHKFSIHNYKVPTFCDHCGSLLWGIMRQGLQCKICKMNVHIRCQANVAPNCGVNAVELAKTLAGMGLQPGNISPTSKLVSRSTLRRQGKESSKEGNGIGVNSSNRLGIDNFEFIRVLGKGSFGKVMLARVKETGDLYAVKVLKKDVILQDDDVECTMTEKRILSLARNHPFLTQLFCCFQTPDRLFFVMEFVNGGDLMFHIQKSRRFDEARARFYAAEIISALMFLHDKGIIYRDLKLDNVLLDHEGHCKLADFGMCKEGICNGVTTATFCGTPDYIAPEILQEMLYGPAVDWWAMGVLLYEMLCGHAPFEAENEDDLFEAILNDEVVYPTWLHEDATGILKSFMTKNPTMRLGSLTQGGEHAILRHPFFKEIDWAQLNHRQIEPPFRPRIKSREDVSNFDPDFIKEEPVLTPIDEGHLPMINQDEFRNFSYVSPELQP

PKC isoenzyme ε = molecular target: T2, PKC isoenzyme ε (Homo sapiens, UniProt Q02156); settings: hDMEC, after stimulation with PMA; from periphery
T2 construct: endogenous in cells; host or cells: hDMEC (human dermal microvascular endothelial cells)
T2 sequence (Q02156 1-737): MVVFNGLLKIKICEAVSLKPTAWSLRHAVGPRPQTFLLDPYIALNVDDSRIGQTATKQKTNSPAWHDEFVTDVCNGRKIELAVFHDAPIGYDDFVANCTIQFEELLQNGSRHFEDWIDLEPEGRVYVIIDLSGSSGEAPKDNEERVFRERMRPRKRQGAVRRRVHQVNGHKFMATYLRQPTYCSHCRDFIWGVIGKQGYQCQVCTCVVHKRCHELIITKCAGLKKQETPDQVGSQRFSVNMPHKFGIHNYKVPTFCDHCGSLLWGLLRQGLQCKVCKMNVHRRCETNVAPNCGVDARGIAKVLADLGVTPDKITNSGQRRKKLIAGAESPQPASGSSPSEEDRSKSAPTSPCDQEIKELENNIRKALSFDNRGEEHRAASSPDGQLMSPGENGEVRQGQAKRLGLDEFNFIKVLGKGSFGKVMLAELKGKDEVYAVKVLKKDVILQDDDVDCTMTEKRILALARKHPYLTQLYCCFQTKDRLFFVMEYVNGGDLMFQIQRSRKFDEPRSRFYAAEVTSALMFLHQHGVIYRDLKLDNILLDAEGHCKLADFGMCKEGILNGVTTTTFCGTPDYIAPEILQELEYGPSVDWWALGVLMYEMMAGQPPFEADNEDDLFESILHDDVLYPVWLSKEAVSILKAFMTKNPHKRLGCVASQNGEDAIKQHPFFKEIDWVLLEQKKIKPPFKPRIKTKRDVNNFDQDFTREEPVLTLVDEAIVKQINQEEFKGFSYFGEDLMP

PKC isoenzyme α = molecular target: T3, PKC isoenzyme α (Homo sapiens, UniProt P17252); settings: hDMEC, after stimulation with PMA; from cytosol
T3 construct: endogenous in cells; host or cells: hDMEC (human dermal microvascular endothelial cells)

PKC isoenzyme δ = molecular target: T4, PKC isoenzyme δ (Homo sapiens, UniProt Q05655); settings: hDMEC, after stimulation with PMA; from cytosol
T4 construct: endogenous in cells; host or cells: hDMEC (human dermal microvascular endothelial cells)
T4 sequence (Q05655 whole entry): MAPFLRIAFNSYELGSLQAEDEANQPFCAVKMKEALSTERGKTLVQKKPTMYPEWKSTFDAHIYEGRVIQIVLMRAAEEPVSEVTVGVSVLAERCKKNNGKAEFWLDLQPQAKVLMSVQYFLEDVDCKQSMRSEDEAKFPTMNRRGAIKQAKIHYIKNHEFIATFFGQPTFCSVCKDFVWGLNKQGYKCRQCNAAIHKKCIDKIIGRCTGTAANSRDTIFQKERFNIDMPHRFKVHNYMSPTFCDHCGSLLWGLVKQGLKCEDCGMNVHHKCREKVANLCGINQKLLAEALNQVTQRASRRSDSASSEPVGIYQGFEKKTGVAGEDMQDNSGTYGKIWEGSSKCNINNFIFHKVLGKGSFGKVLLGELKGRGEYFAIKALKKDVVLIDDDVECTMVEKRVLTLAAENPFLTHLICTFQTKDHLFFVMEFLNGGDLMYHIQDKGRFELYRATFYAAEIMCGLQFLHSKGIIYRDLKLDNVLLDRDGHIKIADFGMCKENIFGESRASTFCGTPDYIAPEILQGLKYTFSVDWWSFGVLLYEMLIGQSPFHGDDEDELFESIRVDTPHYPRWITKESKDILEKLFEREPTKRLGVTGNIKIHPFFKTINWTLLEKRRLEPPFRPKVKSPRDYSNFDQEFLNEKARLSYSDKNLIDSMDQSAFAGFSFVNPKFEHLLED

PKC isoenzyme βII = molecular target: T5, PKC isoenzyme βII (Homo sapiens, UniProt P05771); settings: hDMEC, after stimulation with PMA; from nucleus
T5 construct: endogenous in cells; host or cells: hDMEC (human dermal microvascular endothelial cells)
T5 sequence (P05771 1-673 isoform P05771-2): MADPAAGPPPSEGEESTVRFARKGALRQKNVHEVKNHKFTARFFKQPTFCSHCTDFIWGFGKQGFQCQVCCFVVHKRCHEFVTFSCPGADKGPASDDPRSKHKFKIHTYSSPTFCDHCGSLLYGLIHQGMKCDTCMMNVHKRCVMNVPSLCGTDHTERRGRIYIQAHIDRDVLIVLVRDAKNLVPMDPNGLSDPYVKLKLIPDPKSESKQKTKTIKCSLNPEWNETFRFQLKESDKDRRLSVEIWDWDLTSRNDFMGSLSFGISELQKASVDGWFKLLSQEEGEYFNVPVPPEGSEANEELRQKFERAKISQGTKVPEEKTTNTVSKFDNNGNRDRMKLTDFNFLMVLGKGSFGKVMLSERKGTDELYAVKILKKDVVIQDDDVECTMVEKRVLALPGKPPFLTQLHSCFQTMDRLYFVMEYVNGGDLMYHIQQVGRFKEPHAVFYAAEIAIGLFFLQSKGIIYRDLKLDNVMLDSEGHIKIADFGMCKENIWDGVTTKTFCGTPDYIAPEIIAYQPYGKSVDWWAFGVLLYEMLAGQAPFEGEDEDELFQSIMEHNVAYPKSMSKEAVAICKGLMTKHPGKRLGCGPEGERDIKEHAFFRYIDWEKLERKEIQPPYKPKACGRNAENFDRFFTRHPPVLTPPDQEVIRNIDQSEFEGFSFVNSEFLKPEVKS

PKC isoenzyme β = molecular target: T6, PKC isoenzyme β (Homo sapiens, UniProt P05771); settings: hDMEC, after stimulation with PMA; from cytosol (ditto mark)
T6 construct: endogenous in cells; host or cells: hDMEC (human dermal microvascular endothelial cells)
T6 sequence (P05771 whole entry): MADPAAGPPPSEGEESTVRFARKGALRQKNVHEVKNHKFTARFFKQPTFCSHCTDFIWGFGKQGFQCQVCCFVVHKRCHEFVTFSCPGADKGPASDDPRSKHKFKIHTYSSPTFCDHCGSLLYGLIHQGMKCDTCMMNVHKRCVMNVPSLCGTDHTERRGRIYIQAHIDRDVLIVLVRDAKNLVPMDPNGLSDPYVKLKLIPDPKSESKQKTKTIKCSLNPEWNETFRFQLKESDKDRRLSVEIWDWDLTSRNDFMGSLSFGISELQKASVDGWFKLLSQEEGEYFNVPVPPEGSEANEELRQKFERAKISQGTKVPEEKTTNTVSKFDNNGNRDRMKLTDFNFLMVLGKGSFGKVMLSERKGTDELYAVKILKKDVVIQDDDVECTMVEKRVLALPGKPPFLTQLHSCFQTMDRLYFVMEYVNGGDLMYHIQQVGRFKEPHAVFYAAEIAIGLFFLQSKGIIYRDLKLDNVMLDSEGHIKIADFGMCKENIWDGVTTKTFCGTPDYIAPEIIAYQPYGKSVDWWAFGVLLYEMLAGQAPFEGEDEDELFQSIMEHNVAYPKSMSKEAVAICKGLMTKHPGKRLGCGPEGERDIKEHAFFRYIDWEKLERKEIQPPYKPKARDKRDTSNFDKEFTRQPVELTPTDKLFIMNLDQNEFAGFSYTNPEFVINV

[1] = test system: fusion of the C1 region with green fluorescent protein (GFP); settings: from a diffuse cytoplasmic localization
PKC isoenzyme ζ = molecular target: T7, PKC isoenzyme ζ (Homo sapiens, UniProt Q05513); settings: hDMEC, after stimulation with PMA; from fibrillar structures
T7 construct: endogenous in cells; host or cells: hDMEC (human dermal microvascular endothelial cells)
T7 sequence (Q05513 1-592): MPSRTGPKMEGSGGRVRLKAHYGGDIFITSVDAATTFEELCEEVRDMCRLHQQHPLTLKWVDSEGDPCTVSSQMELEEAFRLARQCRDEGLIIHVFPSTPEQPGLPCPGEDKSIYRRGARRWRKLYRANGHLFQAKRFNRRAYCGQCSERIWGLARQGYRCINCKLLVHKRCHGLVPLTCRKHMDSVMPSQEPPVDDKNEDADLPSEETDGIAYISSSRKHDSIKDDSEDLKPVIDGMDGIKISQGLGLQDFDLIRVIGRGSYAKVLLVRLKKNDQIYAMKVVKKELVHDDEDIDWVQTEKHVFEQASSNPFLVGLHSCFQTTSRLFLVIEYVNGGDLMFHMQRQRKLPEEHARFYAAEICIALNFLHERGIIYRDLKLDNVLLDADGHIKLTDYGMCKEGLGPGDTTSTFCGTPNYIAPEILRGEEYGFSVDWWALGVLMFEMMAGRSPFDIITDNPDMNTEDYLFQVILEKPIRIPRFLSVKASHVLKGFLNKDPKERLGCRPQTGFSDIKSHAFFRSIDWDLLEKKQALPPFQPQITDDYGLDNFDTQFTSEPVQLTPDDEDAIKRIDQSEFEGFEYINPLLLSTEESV

For `CCCCCCCCCCCCCC(=O)O[C@@H]1[C@@H](C)[C@@]2(O)[C@@H](C=C(CO)C[C@]3(O)C(=O)C(C)=C[C@@H]23)[C@@H]2C(C)(C)[C@]12OC(C)=O` [PMA, phorbol myristic acetate], the “Localization after stimulation (To)” value (PKC isoenzyme η) is given as “no change”, the “Localization after stimulation (To)” value (PKC isoenzyme ε) is given as “perinucleus” and the “Localization after stimulation (To)” value (PKC isoenzyme α) is given as “perinuclear membrane”. The “Localization after stimulation (To)” value (PKC isoenzyme δ) was “cytoskeletal elements”, the “Localization after stimulation (To)” value (PKC isoenzyme βII) was “filamentous structures” and the “Localization after stimulation (To)” value (PKC isoenzyme β) was “nucleus”. The “Localization of C1-GFP fusion protein in response to PMA” value [1] was “membrane bound” and the “Localization after stimulation (To)” value (PKC isoenzyme ζ) was “no change”.
